According to BindingDB's records for PubMed 34889100 (University of Health Sciences and Pharmacy, 2021):

Target: Bile acid receptor NR1H4 (Homo sapiens) (UniProt Q96RI1)
Experiment: Agonist activity at FXR in human HepG2 cells

Sequence of Bile acid receptor NR1H4 (Homo sapiens) (Q96RI1 whole entry, looked up): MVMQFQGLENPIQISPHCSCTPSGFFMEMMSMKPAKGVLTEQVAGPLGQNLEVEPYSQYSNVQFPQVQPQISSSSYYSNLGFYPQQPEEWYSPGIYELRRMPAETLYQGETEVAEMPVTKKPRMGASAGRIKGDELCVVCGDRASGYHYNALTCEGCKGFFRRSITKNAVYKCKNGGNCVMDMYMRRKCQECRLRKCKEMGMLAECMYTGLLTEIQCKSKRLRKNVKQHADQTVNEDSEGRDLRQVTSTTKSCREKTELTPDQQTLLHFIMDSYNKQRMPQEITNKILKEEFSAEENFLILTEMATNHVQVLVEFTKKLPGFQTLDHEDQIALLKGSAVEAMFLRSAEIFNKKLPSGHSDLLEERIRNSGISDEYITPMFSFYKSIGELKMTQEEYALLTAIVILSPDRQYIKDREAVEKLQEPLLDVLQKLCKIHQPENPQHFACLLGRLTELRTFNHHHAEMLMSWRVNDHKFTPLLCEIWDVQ

Row | SMILES | EC50 [pM]
1 | O=C(O)c1ccc([C@@H]2C[C@H]2c2ccc(OCc3c(-c4c(Cl)cccc4Cl)noc3C3CC3)cc2Cl)cc1 | 750
2 | O=C(O)c1cc(F)c2nc(N3C[C@@H]4C[C@H]3C[C@H]4OCc3c(-c4ccccc4OC(F)(F)F)noc3C3CC3)sc2c1 | 350
